What all share (assay): Cell proliferation assay (Alamar Blue)
What all share (assay type): cell-based

One assay relates to Hs578T. The note with it: Homo sapiens, Hs-578T, 96 h, Hs578T cells, four days. Summed up:
(§1)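 Cells were seeded at 4,000-5,000 per well and exposed to compound dilutions for four days at 37°C, 5% CO2. Alamar Blue was then added for four hours, and fluorescence was read at 544 nm excitation / 590 nm emission.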

The next assay has as its system Jurkat. The following applies: Homo sapiens, 96 h, Jurkat cells, four days. Summed up:
as §1

Another assay relates to PC3. The note with it: Homo sapiens, PC-3, 96 h, PC3 cells, four days. In outline: as §1
For the next assay, the system named is H1299. The following applies: Homo sapiens, NCI-H1299, 96 h, H1299 cells, four days. In outline: as §1
The test system of a further assay is HCT-116. The note with it: Homo sapiens, 96 h, HCT-116 cells, four days.
The test system of a further assay is MiaPaCa. The following applies: Homo sapiens, MIA PaCa-2, 96 h, MiaPaCa cells, four days. Summed up: as §1
The next assay relates to A375. The note with it: Homo sapiens, A-375, 96 h, A375 cells, four days. Summed up: as §1
The subject of another assay is A549. The note with it: Homo sapiens, 96 h, A549 cells, four days. In outline:
as §1

The test system of another assay is MDAMB231. The note with it: Homo sapiens, MDA-MB-231, 96 h, MDAMB231 cells, four days. In outline:
as §1

In another assay the test system is LNCaP. The note with it: Homo sapiens, 96 h, LNCaP cells, four days. Summed up:
as §1

The subject of another assay is MCF-7. The following applies: Homo sapiens, MCF7, 96 h, MCF-7 cells, four days. In outline:
as §1

In a further assay the test system is K-562. The note with it: Homo sapiens, K562, 96 h, K-562 cells, four days.
The test system of another assay is PanC1. The note with it: Homo sapiens, PANC-1, 96 h, PanC1 cells, four days. Summed up:
as §1

A further assay relates to BxPC3. The following applies: Homo sapiens, BXPC-3, 96 h, BxPC3 cells, four days. In outline: as §1

Structures are written as SMILES.

Turning to `CN(C)CCNc1nc2cc(C(=O)O)ccc2c2cnccc12`, the IC50 was 12.9 µM in the assay with Hs578T; 23.8 µM in the assay with Jurkat; 17.9 µM in the assay on PC3; 3.8 µM in the assay on H1299; over 10 µM in the assay on HCT-116.

Turning to `COC(=O)c1ccc2c(c1)nc(Nc1ccccc1)c1ccncc12`, the half-inhibitory concentration (IC50) in the assay on Hs578T was determined as 4.78 µM; in the assay with Jurkat it was 6.83 µM; with PC3 it was 11.3 µM; in the assay with H1299, 13.1 µM; in the assay on HCT-116, 15 µM.

In the case of `COc1cccc(Nc2nc3cc(C(=O)O)ccc3c3cnccc23)c1`, the IC50 was 12.9 µM in the assay on Hs578T; 6.52 µM in the assay with Jurkat; 17.4 µM with PC3; 10.7 µM in the assay with H1299; over 10 µM with MiaPaCa; over 10 µM in the assay on HCT-116.

In the case of `COC(=O)c1ccc2c(c1)nc(Nc1ccc(F)c(Cl)c1)c1ccncc12`, the IC50 in the assay on Hs578T came to 2.62 µM; in the assay with Jurkat it was 4.25 µM; in the assay with PC3, 9.02 µM; with H1299, 8.46 µM; with HCT-116, 3.94 µM.

On to `COC(=O)c1ccc2c(c1)nc(Nc1cccc(OC)c1)c1ccncc12`, for which the half-maximal inhibitory concentration (IC50) in the assay with Hs578T was 1.82 µM; with Jurkat, 3.4 µM; in the assay with PC3, 11.3 µM; with H1299 it was 7.16 µM; with HCT-116, 15 µM.

As for `O=C(O)c1ccc2c(c1)nc(Nc1ccccc1)c1ccncc12` [drawing 286], the IC50 in the assay on Hs578T worked out at 14.9 µM; in the assay on Jurkat, 23.7 µM; in the assay on PC3, 15.4 µM; with A375 it was 18.4 µM; with H1299, 6.84 µM; in the assay on MiaPaCa, 7.51 µM. In the assay on HCT-116, this compound yielded an IC50 of 13.3 µM.

On to `O=C(O)c1ccc2c(c1)nc(Nc1ccc(F)c(Cl)c1)c1ccncc12` [drawing 291], for which the IC50 was determined as 3.31 µM in the assay with Hs578T; 2.68 µM with Jurkat; 4.86 µM in the assay with PC3; 3.21 µM in the assay on A375; 3.08 µM in the assay with H1299; 3.06 µM in the assay with MiaPaCa. In the assay with HCT-116, this compound showed an IC50 of 4.34 µM.

In the case of `COC(=O)c1ccc2c(c1)nc(Nc1ccc(F)c(Cl)c1)c1ncncc12` [drawing 295], the IC50 is 3.7 µM with Hs578T; 20.3 µM in the assay with Jurkat; 15.8 µM in the assay on PC3; 15.4 µM with H1299; over 10 µM with HCT-116.

Consider `O=C(O)c1ccc2c(c1)nc(Nc1ccc(F)c(Cl)c1)c1ncncc12` [drawing 296], for which the IC50 in the assay on Hs578T is 9.7 µM; in the assay with Jurkat, 4.29 µM; in the assay with PC3, 18.8 µM; in the assay on H1299, 7.55 µM; in the assay on MiaPaCa, 1.22 µM.

As to `O=C(O)c1ccc2c(c1)nc(Nc1cccc(F)c1)c1ccncc12` [drawing 298], the IC50 amounted to 5.89 µM in the assay on Hs578T; 3.19 µM with Jurkat; 9.23 µM with PC3; 8.32 µM in the assay with H1299; 6.86 µM in the assay with MiaPaCa.

Consider `O=C(O)c1ccc2c(c1)nc(Nc1cccc(Cl)c1)c1ccncc12` [drawing 299], for which the IC50 came to 0.67 µM in the assay with Hs578T; 2.37 µM with Jurkat; 1.51 µM in the assay on PC3; 3.95 µM with A375; 3.08 µM in the assay on H1299; 2.74 µM with MiaPaCa. In addition, the IC50 in the assay on HCT-116 is 4.02 µM.

On to `O=C(O)c1ccc2c(c1)nc(Nc1cc(F)cc(F)c1)c1ncncc12` [drawing 301], for which the IC50 in the assay with Hs578T is 5.9 µM; in the assay with Jurkat, 2.59 µM; in the assay with PC3 it was 7.5 µM; in the assay with A375 it was 2.63 µM; in the assay on H1299 it was 6.62 µM; with MiaPaCa it was 0.85 µM. Moreover, 4.06 µM corresponded to half-maximal inhibition in the assay on HCT-116 (IC50).

With `O=C(O)c1ccc2c(c1)nc(Nc1cccc(F)c1)c1ncncc12` [drawing 302], the IC50 turned out to be 3.43 µM with Hs578T; 1.89 µM with Jurkat; 4.71 µM in the assay with PC3; 5.11 µM in the assay with A375; 7.24 µM with H1299; 3.36 µM in the assay with MiaPaCa. Also, half-maximal inhibition in the assay on HCT-116 (IC50) required 7.1 µM.

Turning to `O=C(O)c1ccc2c(c1)nc(Nc1cccc(Cl)c1)c1ncncc12` [drawing 303], the IC50 with Hs578T was 11.2 µM; in the assay with Jurkat, 0.88 µM; with PC3, 9.14 µM; in the assay on A375, 5.45 µM; in the assay on H1299, 3.01 µM; with MiaPaCa, 2.09 µM. This compound also had an IC50 in the assay on HCT-116 of 7.19 µM.

Consider `C#Cc1cccc(Nc2nc3cc(C(=O)O)ccc3c3cncnc23)c1` [drawing 304], for which the IC50 with Hs578T is 2.86 µM; in the assay on Jurkat, 1.8 µM; in the assay on PC3 it was 3.13 µM; in the assay on A375, 4.12 µM; in the assay with H1299, 1.55 µM; with MiaPaCa, 0.67 µM. In addition, the IC50 in the assay with HCT-116 stood at 5.86 µM.

In the case of `Fc1cccc(Nc2nc3cc(-c4nnn[nH]4)ccc3c3cnccc23)c1` [drawing 305], the half-inhibitory concentration (IC50) is 9.43 µM in the assay with Jurkat; over 50 µM in the assay with PC3; over 50 µM in the assay with H1299; over 10 µM in the assay with MiaPaCa; over 10 µM in the assay with HCT-116.

For `Fc1cc(Nc2nc3cc(-c4nnn[nH]4)ccc3c3cnccc23)ccc1Cl` [drawing 306], the 50% inhibitory concentration (IC50) with Jurkat is 18.8 µM; in the assay on PC3, over 50 µM; with H1299, over 50 µM; in the assay on MiaPaCa, over 10 µM; with HCT-116 it was over 10 µM.

With `CNc1ncc2c(n1)c(Nc1ccccc1)nc1cc(C(=O)O)ccc12` [drawing 307], the IC50 turned out to be 1.84 µM with Hs578T; 0.73 µM in the assay on Jurkat; 3.14 µM with PC3; 1.92 µM with A375; 2.42 µM in the assay on H1299; 1.09 µM in the assay with MiaPaCa. This compound also displayed an IC50 in the assay with HCT-116 of 2.99 µM.

In the case of `O=C(O)c1ccc2c(c1)nc(Nc1ccc(Cl)cc1)c1ccncc12` [drawing 308], the IC50 was found to be 6.64 µM in the assay with Hs578T; 2.53 µM with Jurkat; 8.63 µM in the assay with PC3; 4.8 µM in the assay with A375; 1.94 µM in the assay on H1299; 2.7 µM in the assay with MiaPaCa. The compound further yielded an IC50 with HCT-116 of 6.72 µM.

As for `C#Cc1cccc(Nc2nc3cc(C(=O)O)ccc3c3cnccc23)c1` [drawing 309], the IC50 in the assay on Hs578T came out at 4.03 µM; with Jurkat it was 2.78 µM; with PC3, 16.8 µM; in the assay with A375, 7.36 µM; with H1299 it was 3.65 µM; in the assay on MiaPaCa, 3.85 µM.

As to `Clc1cccc(Nc2nc3cc(-c4nnn[nH]4)ccc3c3cnccc23)c1` [drawing 310], the IC50 with Jurkat is 14.2 µM; in the assay with PC3, 46.6 µM; with H1299, over 50 µM; in the assay with MiaPaCa, over 10 µM; in the assay on HCT-116 it was over 10 µM.

For `O=C(O)c1ccc2c(c1)nc(Nc1cc(F)cc(F)c1)c1ccncc12` [drawing 311], the IC50 is 9.09 µM in the assay with Hs578T; 2.41 µM in the assay with Jurkat; 10.1 µM in the assay on PC3; 5.4 µM in the assay on A375; 8.91 µM with H1299; 1.35 µM in the assay with MiaPaCa. The same compound registered an IC50 in the assay with HCT-116 of 4.33 µM.

For `N#Cc1cccc(Nc2nc3cc(C(=O)O)ccc3c3cnccc23)c1` [drawing 312], the IC50 in the assay with Hs578T was 35.6 µM; with Jurkat, 22 µM; in the assay on PC3, 26.4 µM; in the assay on MiaPaCa, over 10 µM; with HCT-116, over 10 µM.

In the case of `O=C(O)c1ccc2c(c1)nc(Nc1cccc(F)c1)c1ccncc12` [drawing 375], the IC50 with A549 is 16.6 µM.

Regarding `Fc1cccc(Nc2nc3cc(-c4nnn[nH]4)ccc3c3cnccc23)c1` [drawing 381], the IC50 with MDAMB231 is over 50 µM; with LNCaP it was under 0.2 µM; with MCF-7, over 50 µM; in the assay with A549, over 50 µM.

In the case of `Fc1cc(Nc2nc3cc(-c4nnn[nH]4)ccc3c3cnccc23)ccc1Cl` [drawing 382], the IC50 is over 50 µM in the assay with MDAMB231; 48.2 µM in the assay with LNCaP; 5.94 µM with MCF-7; over 50 µM in the assay on A549; over 50 µM in the assay on K-562.

`Clc1cccc(Nc2nc3cc(-c4nnn[nH]4)ccc3c3cnccc23)c1` [drawing 386]: the IC50 in the assay on MDAMB231 was over 50 µM; in the assay on LNCaP, 37.4 µM; in the assay with MCF-7, over 50 µM; in the assay on A549, over 50 µM; in the assay on K-562, 31.2 µM.

As to `N#Cc1cccc(Nc2nc3cc(C(=O)O)ccc3c3cnccc23)c1` [drawing 388], the IC50 was 28.7 µM in the assay on MDAMB231; 15.5 µM in the assay on LNCaP; 41 µM in the assay on MCF-7; over 50 µM with A549; 9.15 µM with K-562.

As to `CCOC(=O)CCNC(=O)c1ccc2c(c1)nc(Nc1cccc(C(F)(F)F)c1)c1nc(NC3CC3)ncc12` [drawing 514], the IC50 in the assay with PanC1 was found to be 0.44 µM; in the assay with BxPC3 it was 8.76 µM.

Source of the values: patent EP2061765B1, “Serine-threonine protein kinase and PARP modulators” (Senhwa Biosciences, Inc., priority 2006, dated 2008).
